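96-well plates; 48 h exposure; 5 concentrations. Endpoints by linear interpolation between flanking doses. Not reached: highest tested concentration assigned. The concentration for full growth arrest is given as TGI.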
Key:
Assay in all cases: NCI tumour cell line growth inhibition, 48 h
[1] = tested on: 786-0 renal
[2] = tested on: A498 renal
[3] = tested on: A549 NSCLC
[4] = tested on: ACHN renal
[5] = tested on: BT-549 breast
[6] = tested on: CAKI-1 renal
[7] = tested on: CCRF-CEM leukemia
[8] = tested on: COLO 205 colon
[9] = tested on: DU-145 prostate
[10] = tested on: EKVX NSCLC
[11] = tested on: HCC-2998 colon
[12] = tested on: HCT-116 colon
[13] = tested on: HCT-15 colon
[14] = tested on: HL-60(TB) leukemia
[15] = tested on: HOP-62 NSCLC
[16] = tested on: HOP-92 NSCLC
[17] = tested on: HS 578T breast
[18] = tested on: HT29 colon
[19] = tested on: IGROV1 ovarian
[20] = tested on: K-562 leukemia
[21] = tested on: KM12 colon
[22] = tested on: LOX IMVI melanoma
[23] = tested on: M14 melanoma
[24] = tested on: MALME-3M melanoma
[25] = tested on: MCF7 breast
[26] = tested on: MDA-MB-231 breast
[27] = tested on: MDA-MB-435
[28] = tested on: MDA-N
[29] = tested on: MOLT-4 leukemia
[30] = tested on: NCI-H226 lung
[31] = tested on: NCI-H23 lung
[32] = tested on: NCI-H460 lung
[33] = tested on: NCI-H522 lung
[34] = tested on: NCI/ADR-RES ovarian
[35] = tested on: OVCAR-3 ovarian
[36] = tested on: OVCAR-4 ovarian
[37] = tested on: OVCAR-5 ovarian
[38] = tested on: OVCAR-8 ovarian
[39] = tested on: PC-3 prostate
[40] = tested on: RPMI-8226 leukemia
[41] = tested on: RXF 393 renal
[42] = tested on: SF-268 CNS
[43] = tested on: SF-295 CNS
[44] = tested on: SF-539 CNS
[45] = tested on: SK-MEL-28 melanoma
[46] = tested on: SK-MEL-5 melanoma
[47] = tested on: SK-OV-3 ovarian
[48] = tested on: SN12C renal
[49] = tested on: SNB-19 CNS
[50] = tested on: SNB-75 CNS
[51] = tested on: SR leukemia
[52] = tested on: SW-620 colon
[53] = tested on: T-47D breast
[54] = tested on: TK-10 renal
[55] = tested on: U251 CNS
[56] = tested on: UACC-257 melanoma
[57] = tested on: UACC-62 melanoma
[58] = tested on: UO-31 renal
[59] = tested on: SK-MEL-2 melanoma

Measured: TGI

c1cc(C[S+]2CCCC2)ccc1C[S+]1CCCC1
not listed: [59]
> 100 µM: all other assays above

CC(C)(C)OC(=O)NC(Cc1ccc(O)cn1)C(N)=O (configuration not stated)
not listed: [7] | [20] | [23] | [47] | [53] | [57] | [59]
> 100 µM: all other assays above

CC(C)(C)n1c(=O)n(C(=O)C(Cl)(Cl)Cl)n(C(=O)C(Cl)(Cl)Cl)c1=O
not listed: [2] | [50]
> 100 µM: all other assays above

Cc1ccc(NC(=S)Nc2c(C)n(C)n(-c3ccccc3)c2=O)cc1
not listed: [36] | [48] | [53] | [59]
> 100 µM: all other assays above

— PubChem BioAssay (NCI)
